Data published in patent US12473293B2, “Pharmacologically active heterocyclic-substituted pyrazolo[1,5-a]pyrimidine derivatives” (Richter Gedeon Nyrt., priority 2020, dated 2025).
pEC50: −log10 of the molar value. Counter-ions that a name gives are not always drawn.

target: T1, GABAB receptor (Rattus norvegicus, UniProt O88871+Q9Z0U4); experiment: In vitro [35S]GTPγS binding assay in rat cortical membranes; format: biochemical; details: PAM EC50, [35S]GTPγS binding, read-out: In vitro PAM potency
T1 construct: from tissue; host or cells: rat brain cortex membranes
T1 sequence (O88871 41-940): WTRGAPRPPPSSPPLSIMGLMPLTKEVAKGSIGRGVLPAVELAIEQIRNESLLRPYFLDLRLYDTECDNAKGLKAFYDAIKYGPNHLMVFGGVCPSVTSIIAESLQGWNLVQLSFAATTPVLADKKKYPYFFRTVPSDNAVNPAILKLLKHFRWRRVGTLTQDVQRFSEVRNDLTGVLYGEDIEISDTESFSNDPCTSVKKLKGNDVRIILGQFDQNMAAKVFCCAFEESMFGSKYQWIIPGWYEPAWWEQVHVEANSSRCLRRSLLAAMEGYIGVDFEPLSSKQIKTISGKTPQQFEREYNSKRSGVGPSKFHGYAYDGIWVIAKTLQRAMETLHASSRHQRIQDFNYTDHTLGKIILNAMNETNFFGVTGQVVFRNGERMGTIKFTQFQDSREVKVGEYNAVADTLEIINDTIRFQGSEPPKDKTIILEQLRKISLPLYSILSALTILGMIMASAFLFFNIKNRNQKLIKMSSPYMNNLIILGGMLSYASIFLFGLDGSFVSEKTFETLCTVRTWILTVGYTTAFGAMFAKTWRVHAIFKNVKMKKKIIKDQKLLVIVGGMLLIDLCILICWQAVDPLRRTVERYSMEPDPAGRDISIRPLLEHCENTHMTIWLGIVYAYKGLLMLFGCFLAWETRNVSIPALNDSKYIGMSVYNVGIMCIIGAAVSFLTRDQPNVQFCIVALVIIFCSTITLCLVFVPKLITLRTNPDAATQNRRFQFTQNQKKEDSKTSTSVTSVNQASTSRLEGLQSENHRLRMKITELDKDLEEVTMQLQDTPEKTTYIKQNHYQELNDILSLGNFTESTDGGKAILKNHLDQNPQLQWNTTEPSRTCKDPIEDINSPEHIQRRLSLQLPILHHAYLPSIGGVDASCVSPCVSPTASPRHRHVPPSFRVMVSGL
T1 sequence (Q9Z0U4 17-960 limits assumed): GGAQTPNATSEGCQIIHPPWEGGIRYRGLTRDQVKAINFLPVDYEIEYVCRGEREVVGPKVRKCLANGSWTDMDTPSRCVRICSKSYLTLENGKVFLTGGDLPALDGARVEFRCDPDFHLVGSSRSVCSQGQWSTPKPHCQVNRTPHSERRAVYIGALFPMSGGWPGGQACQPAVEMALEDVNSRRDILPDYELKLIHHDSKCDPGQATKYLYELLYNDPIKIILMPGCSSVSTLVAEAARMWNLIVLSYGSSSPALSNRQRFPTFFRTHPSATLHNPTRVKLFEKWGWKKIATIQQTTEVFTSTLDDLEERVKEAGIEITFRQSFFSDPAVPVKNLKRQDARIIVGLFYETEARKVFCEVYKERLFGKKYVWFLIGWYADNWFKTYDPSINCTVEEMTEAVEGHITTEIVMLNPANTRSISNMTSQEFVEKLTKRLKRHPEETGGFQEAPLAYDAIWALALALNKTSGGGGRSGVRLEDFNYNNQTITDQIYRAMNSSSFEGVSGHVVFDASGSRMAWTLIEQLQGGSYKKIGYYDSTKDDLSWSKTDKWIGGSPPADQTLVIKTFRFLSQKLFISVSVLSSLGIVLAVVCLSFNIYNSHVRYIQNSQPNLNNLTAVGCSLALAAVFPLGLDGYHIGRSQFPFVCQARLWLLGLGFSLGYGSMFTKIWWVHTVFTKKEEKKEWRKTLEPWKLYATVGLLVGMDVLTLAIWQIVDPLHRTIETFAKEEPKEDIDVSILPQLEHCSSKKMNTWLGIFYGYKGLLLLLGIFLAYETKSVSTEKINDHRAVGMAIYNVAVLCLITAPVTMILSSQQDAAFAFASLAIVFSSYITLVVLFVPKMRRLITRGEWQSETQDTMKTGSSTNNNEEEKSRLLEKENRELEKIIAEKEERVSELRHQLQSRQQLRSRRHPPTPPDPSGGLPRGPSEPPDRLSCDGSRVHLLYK
Experimental: In Vitro [^35S]GTPγS Binding Assay in Rat Cortical Membranes
Cortices of freshly harvested rat brains were dissected on an ice-cold surface and homogenized by a glass Dounce homogeniser immediately in ice-cold buffer containing 50 mM Tris, 5 mM MgCl2 and 1 mM EDTA (pH=7.6). Tissue homogenates were centrifuged at 40000 g for 15 min at 4° C. Membrane pellets were resuspended in the same buffer and membranes were incubated for 10 min at 30° C. in a shaking water bath to eliminate endogenous GABA. Homogenates were centrifuged again under the same conditions. The final pellets were resuspended in ice-cold buffer (pH=7.6) containing 50 mM Tris, 100 mM NaCl, 7 mM MgCl2, 1 mM EDTA and 1 mM dithiotreithol (DTT) to yield a concentration of 20 mg tissue weight/ml and frozen at −70° C. until use. The assay was done in a buffer containing 50 mM Tris (pH=7.4), 100 mM NaCl, 7 mM MgCl2, 1 mM EDTA and 1 mM DTT. Each assay tube contained 150 μL GDP (in a final concentration of 50 μM), 100 μL ligand and 125 μL of the membrane suspension ([…]). The assay tubes were preincubated for 10 min at 30° C. to assure equilibrium. Nonspecific binding was determined in the presence of 10 μM GTPγS; basal binding was determined in the presence of buffer only. After addition of […] [^35S]GTPγS in a volume of 25 μL to the tubes, membranes were incubated for an additional 60 min at 30° C. The assay was terminated by rapid filtration through Packard UniFilter GF/B using a Packard harvester and washed four times with 1 ml ice-cold buffer. After drying the filters at 40° C. for 1 h, 40 μL Microscint (Packard) was added to the filters and radioactivity of the filters was determined by a TopCount NXT (PerkinElmer, Waltham, MA; Alper and Nelson, Eur. J. Pharmacol. 1998, 343, 303-312; Rinken et al, Biochem. Pharmacol. 1999, 57, 155-162). Data thus gathered were used to determine PAM EC50 values for each compound as primary in vitro activity end point.
In Table 1 compounds of this invention measured in the [^35S]GTPγS binding assay are listed.

pEC50	Structure (SMILES)
5.00 to 6.00	Cc1cc([C@@H]2CCCN(C(C)C)C2)n2nc([C@H]3CC[C@H](C(F)(F)F)CC3)cc2n1 [Example 24, (3R)-3-{5-methyl-2-[trans-4-(trifluoromethyl)cyclohexyl]pyrazolo[1,5-a]pyrimidin-7-yl}-1-(propan-2-yl)piperidine]
> 7.00	COC(=O)N1C[C@H](c2cc(C)nc3cc([C@H]4CC[C@H](C(F)(F)F)CC4)nn23)OC[C@@H]1C [Example 102]
6.00 to 7.00	COC(=O)N1C[C@H](c2cc(C)nc3cc([C@H]4CC[C@H](C(F)(F)F)CC4)nn23)OC[C@H]1C [Example 106]
6.00 to 7.00	Cc1cc([C@H]2CN(C=O)[C@H](C)CO2)n2nc([C@H]3CC[C@H](C(F)(F)F)CC3)cc2n1 [Example 108]
6.00 to 7.00	COC(=O)N1CCOC(c2cc(C)nc3cc([C@H]4CC[C@H](C(F)(F)F)CC4)nn23)C1 (stereo partly drawn) [Example 84]
6.00 to 7.00	CC(=O)N1CCCC(CF)(c2cc(C)nc3cc([C@H]4CC[C@H](C(F)(F)F)CC4)nn23)C1 (stereo partly drawn) [Example 62]
5.00 to 6.00	COC(=O)N1C[C@@H](c2cc(C)nc3cc([C@H]4CC[C@H](C(F)(F)F)CC4)nn23)OC[C@H]1C [Example 110]
5.00 to 6.00	Cc1cc([C@]2(C)CCCN(C(=N)N)C2)n2nc([C@H]3CC[C@H](C(F)(F)F)CC3)cc2n1 [Example 64]
6.00 to 7.00	CC(=O)N1CCC(C)C(c2cc(C)nc3c(F)c(C4CCC(C(F)(F)F)CC4)nn23)C1 (single isomer, unassigned) [Example 2]
5.00 to 6.00	Cc1cc([C@@H]2CN(C=O)CCO2)n2nc([C@H]3CC[C@H](C(F)(F)F)CC3)cc2n1 [Example 94]
≤ 5.00	Cc1cc(C2CN(C=O)CCS2(=O)=O)n2nc([C@H]3CC[C@H](C(F)(F)F)CC3)cc2n1 (stereo partly drawn) [Example 87]
6.00 to 7.00	COC(=O)N1C[C@H](c2cc(C)nc3cc([C@H]4CC[C@H](C(F)(F)F)CC4)nn23)OC[C@@H]1C(C)C [Example 127]
6.00 to 7.00	COC(=O)N1C[C@@H](c2cc(C)nc3cc([C@H]4CC[C@H](C(F)(F)F)CC4)nn23)OC[C@@H]1C(C)C [Example 122]
5.00 to 6.00	CC(=O)N1CCC[C@](C)(c2cc(C)nc3cc([C@H]4CC[C@H](C(F)(F)F)CC4)nn23)C1 [Example 36]
6.00 to 7.00	COC(=O)N1C[C@H](C)O[C@@H](c2cc(C)nc3cc([C@H]4CC[C@H](C(F)(F)F)CC4)nn23)C1 [Example 125]
6.00 to 7.00	Cc1cc([C@H]2C[C@@H](C)CN(C=O)C2)n2nc([C@H]3CC[C@H](C(F)(F)F)CC3)cc2n1 (racemic) [Example 104]
≤ 5.00	COC(=O)N1C[C@@H](c2cc(C)nc3cc([C@H]4CC[C@H](C(F)(F)F)CC4)nn23)O[C@@H](C)C1 [Example 124]
5.00 to 6.00	Cc1cc([C@@H]2CN(C(=O)CN)CC[C@H]2C)n2nc([C@H]3CC[C@H](C(F)(F)F)CC3)cc2n1 [Example 53]
6.00 to 7.00	Cc1cc(C2CCCOC2)n2nc([C@H]3CC[C@H](C(F)(F)F)CC3)cc2n1 (mixture of isomers) [Example 161]
6.00 to 7.00	CC(=O)N1CCC[C@@H](c2c(C)c(C)nc3cc([C@H]4CC[C@H](C(F)(F)F)CC4)nn23)C1 [Example 33]
6.00 to 7.00	Cc1cc([C@@H]2CCCN(C(=N)N)C2)n2nc([C@H]3CC[C@H](C(F)(F)F)CC3)cc2n1 [Example 23, (3R)-3-{5-methyl-2-[trans-4-(trifluoromethyl)cyclohexyl]pyrazolo[1,5-a]pyrimidin-7-yl}piperidine-1-carboximidamide hydrochloride]
6.00 to 7.00	Cc1cc([C@H]2CN(S(=O)(=O)N(C)C)CCO2)n2nc([C@H]3CC[C@H](C(F)(F)F)CC3)cc2n1 [Example 120]
6.00 to 7.00	Cc1cc(C2CN(C3COC3)CCC2(C)C)n2nc([C@H]3CC[C@H](C(F)(F)F)CC3)cc2n1 (stereo partly drawn) [Example 60]
6.00 to 7.00	CC(=O)N1CCC[C@](C)(c2c(C)c(C)nc3cc([C@H]4CC[C@H](C(F)(F)F)CC4)nn23)C1 [Example 37]
5.00 to 6.00	CC(=O)N1CC[C@@H](C)[C@@H](c2cc(C)nc3c(F)c([C@H]4CC[C@H](C(F)(F)F)CC4)nn23)C1 (single isomer, unassigned) [Example 3]
6.00 to 7.00	Cc1nc2cc([C@H]3CC[C@H](C(F)(F)F)CC3)nn2c([C@]2(C)CCCN(CC(F)(F)F)C2)c1C [Example 48]

pEC50	Structure (SMILES)
> 7.00	CCc1c(C)nc2cc([C@H]3CC[C@H](C(F)(F)F)CC3)nn2c1[C@]1(C)CCCN(S(C)(=O)=O)C1 [Example 44]
6.00 to 7.00	COC(=O)N1CC[C@H](C)[C@H](c2cc(C)nc3cc([C@H]4CC[C@H](C(F)(F)F)CC4)nn23)C1 (racemic) [Example 76]
6.00 to 7.00	COC(=O)N1CC[C@H](C)[C@@H](c2cc(C)nc3cc([C@H]4CC[C@H](C(F)(F)F)CC4)nn23)C1 (racemic) [Example 159]
6.00 to 7.00	COC(=O)N1CC[C@H](C)[C@@H](c2cc(C)nc3cc([C@H]4CC[C@H](C(F)(F)F)CC4)nn23)C1 (single isomer, unassigned) [Example 4]
5.00 to 6.00	Cc1cc(C2CCCN(C)C2=O)n2nc([C@H]3CC[C@H](C(F)(F)F)CC3)cc2n1 (stereo partly drawn) [Example 105]
6.00 to 7.00	Cc1cc([C@@H]2CCCN(C=O)C2)n2nc([C@H]3CC[C@H](C(F)(F)F)CC3)cc2n1 [Example 22, (3R)-3-{5-methyl-2-[trans-4-(trifluoromethyl)cyclohexyl]pyrazolo[1,5-a]pyrimidin-7-yl}piperidine-1-carbaldehyde]
6.00 to 7.00	COC(=O)N1CC[C@H](C)[C@@H](c2cc(C)nc3c(F)c([C@H]4CC[C@H](C(F)(F)F)CC4)nn23)C1 [Example 129]
6.00 to 7.00	Cc1cc([C@H]2CN(C(=O)c3cnco3)CCO2)n2nc([C@H]3CC[C@H](C(F)(F)F)CC3)cc2n1 [Example 114]
6.00 to 7.00	COC(=O)N1CC[C@H](C)[C@H](c2cc(C)nc3cc([C@H]4CC[C@H](C(F)(F)F)CC4)nn23)C1 (single isomer, unassigned) [Example 6]
6.00 to 7.00	Cc1cc(C2(C)CN(C=O)CC(F)(F)C2)n2nc([C@H]3CC[C@H](C(F)(F)F)CC3)cc2n1 (stereo partly drawn) [Example 78]
6.00 to 7.00	CCc1c(C)nc2cc([C@H]3CC[C@H](C(F)(F)F)CC3)nn2c1[C@@H]1CCCN(C(=O)OC)C1 [Example 51]
5.00 to 6.00	Cc1nc2cc([C@H]3CC[C@H](C(F)(F)F)CC3)nn2c([C@@H]2CCCN(C(=O)CN)C2)c1C [Example 52]
6.00 to 7.00	Cc1cc(C2CN(C=O)CCO2)n2nc([C@H]3CC[C@H](C(F)(F)F)CC3)cc2n1 (stereo partly drawn) [Example 83]
5.00 to 6.00	Cc1cc(C2OCCN(C)C2=O)n2nc([C@H]3CC[C@H](C(F)(F)F)CC3)cc2n1 (stereo partly drawn) [Example 30, 4-methyl-2-{5-methyl-2-[trans-4-(trifluoromethyl)cyclohexyl]pyrazolo[1,5-a]pyrimidin-7-yl}morpholin-3-one]
5.00 to 6.00	COC(=O)N1CC[C@@H](C)[C@H](c2cc(C)nc3c(F)c([C@H]4CC[C@H](C(F)(F)F)CC4)nn23)C1 [Example 128]
> 7.00	COC(=O)N1CC[C@H](C)[C@H](c2c(C)c(C)nc3cc([C@H]4CC[C@H](C(F)(F)F)CC4)nn23)C1 [Example 77]
6.00 to 7.00	Cc1cc([C@]2(C)CCCN(C=O)C2)n2nc([C@H]3CC[C@H](C(F)(F)F)CC3)cc2n1 [Example 69]
6.00 to 7.00	Cc1cc([C@@H]2CN(C=O)CC[C@@H]2C)n2nc([C@H]3CC[C@H](C(F)(F)F)CC3)cc2n1 (racemic) [Example 160]
6.00 to 7.00	Cc1nc2cc([C@H]3CC[C@H](C(F)(F)F)CC3)nn2c(C2CN(C(=O)C3(C)COC3)CC(F)(F)C2)c1C (stereo partly drawn) [Example 79]
6.00 to 7.00	Cc1cc([C@H]2CCCN(C=O)[C@@H]2C)n2nc([C@H]3CC[C@H](C(F)(F)F)CC3)cc2n1 [Example 89]
6.00 to 7.00	Cc1cc([C@H]2CN(C(=O)OC(C)C)CCO2)n2nc([C@H]3CC[C@H](C(F)(F)F)CC3)cc2n1 [Example 99]
6.00 to 7.00	Cc1nc2cc([C@H]3CC[C@H](C(F)(F)F)CC3)nn2c([C@@H]2CN(C(=N)N)CC[C@@H]2C)c1C (racemic) [Example 57]
5.00 to 6.00	COC(=O)N1C[C@@H](c2cc(C)nc3cc([C@H]4CC[C@H](C(F)(F)F)CC4)nn23)OC[C@@H]1C [Example 96]
5.00 to 6.00	COC(=O)N1C[C@@H](c2cc(C)nc3cc([C@H]4CC[C@H](C(F)(F)F)CC4)nn23)OCC1(C)C (single isomer, unassigned) [Example 12]
6.00 to 7.00	Cc1cc([C@@H]2CCCS(=O)(=O)C2)n2nc([C@H]3CC[C@H](C(F)(F)F)CC3)cc2n1 [Example 27, 3-{5-methyl-2-[trans-4-(trifluoromethyl)cyclohexyl]pyrazolo[1,5-a]pyrimidin-7-yl}-1λ^6-thiane-1,1-dione]
